System: Patient Sample GS-640, kidney tissue, renal cell carcinoma
Assay: Three-dimensional gel matrix screening of chemotherapeutics on patient tumor tissue fragments (cell migration/invasion into the gel)
Format: cell-based, human
Details: renal cell carcinoma patient sample GS-640 in gel matrix; for number of cells that have grown and invaded away from the solid tumor fragment / distance of cell migration away from the solid tumor fragment: 5 days after treatment, photomicrograph; for number of cells that have grown and invaded away from the solid tumor fragment: versus control; for response of tumor sample to the drug: treated for 5 days, 37 degree Celsius, 5% CO2, compared with untreated control (FIG. 5)
Text: FIGS. 1-8 are photographic and photomicrographic images which show, by way of example, use of the means and methods of the present invention with respect to a tissue sample removed from a patient. With respect to FIGS. 1-8, Patient Sample GS-640, comprising kidney tissue, was removed from the patient by a surgeon during surgery.
Tissue analysis and screening in accordance with the invention were requested by the surgeon, and proper consent was obtained from the patient prior to surgical removal of a sample quantity of tissue from the RHS Kidney. The patient was diagnosed with renal cell carcinoma. A tissue sample of approximately 1 gram in quantity was removed from the patient during surgery, and was placed into a 25 ml sample jar, and immersed in sterile saline. The tumor tissue was kept at 4 degrees centigrade until processed for the screening of therapeutic compounds in accordance with the means and methods of the invention. All procedures were performed under sterile conditions in a bio-safety laminar flow hood.
FIG. 1: FIG. 1 is a photographic image showing the mechanical division of the sample into portions to be tested. The sample has been prepared by dissecting away any non viable tissue and blood prior to mincing into 1-2 mm pieces using sterile disposable scalpels.
FIG. 2: FIG. 2 is a photographic image showing tumor sample portions which have been placed into each well of a 48 well plate, and been submersed in a gel matrix mixture according to the invention. After insertion of the portions, the mixture was allowed to form into a gel at room temperature for approximately 30 minutes. Once the gel formed around the fully immersed tumor fragments, nutrient rich media was added as a liquid overlay that permeated the entire gel and tumor fragment.
Each different chemotherapy and or dose of chemotherapy was added to a set of 6 wells out of the 48-well plate. A total of 7 different chemotherapies were assessed in this plate. One set of six wells were not treated with drug and thus acted as ‘control conditions’ for tumor fragment growth and invasion. Each of the eight vertical lanes containing six separate wells was marked with a symbol for each chemotherapy/dose used and noted correspondingly on data collection sheets. […] The plates were then placed in a conventional 37 degree Celsius incubator at 5% CO2.
This image is thus representative of all wells at Day 0 with or without chemotherapeutics. Images were made with a 400× magnification phase contrast micrograph using ZEISS camera specs.
Noteworthy is the halo of cells and increased cell density as compared with the results shown at Day 3 of the test. The lines on the images have been drawn to show the distance measurements within which approximately 95% of the migrating cells have migrated away from the margins of the tissue sample.

Structure (SMILES) | number of cells that have grown and invaded away from the solid tumor fragment | response of tumor sample to the drug | distance of cell migration away from the solid tumor fragment
N.N.[Cl][Pt][Cl] [Cisplatin] | identical in appearance and cell numbers to the control sample | failed chemotherapy | –
CC(=O)O[C@@]12CO[C@@H]1C[C@H](O)[C@@]1(C)C(=O)[C@H](O)C3=C(C)[C@@H](OC(=O)[C@H](O)[C@@H](NC(=O)OC(C)(C)C)c4ccccc4)C[C@@](O)([C@@H](OC(=O)c4ccccc4)[C@H]21)C3(C)C [Docetaxol, Docetaxel] | fewer number of invading cells than the control | moderate response | longer migratory distance than treatment with Taxol
CC(=O)O[C@H]1C(=O)[C@@]2(C)[C@H]([C@H](OC(=O)c3ccccc3)[C@]3(O)C[C@H](OC(=O)[C@H](O)[C@@H](NC(=O)c4ccccc4)c4ccccc4)C(C)=C1C3(C)C)[C@]1(OC(C)=O)CO[C@@H]1C[C@@H]2O [Taxol, Paclitaxel] | drop | – | drop

Source: US20070292901A1, “Methods and kits for evaluating and measuring the oncological status of tissue samples in three-dimensional physiological matrices” (priority 2006, published 2007)
